Results on one compound are retold here after patent publication US20210395327A1, “Growth Hormone-Releasing Hormone Antagonists and Uses Thereof” (United States Government As Represented By The Department …, priority 2019, published 2021).

SMILES strings stand for the structures. Non-standard residues stand in square brackets, D forms with d. Residues, ends and D or L forms follow the SMILES beside them. *: point of attachment. Phe(4-Cl) = N[C@@H](Cc1ccc(Cl)cc1)C(=O)O; hArg = N=C(N)NCCCC[C@H](N)C(=O)O; 12Ado = NCCCCCCCCCCCC(=O)O; Nle = CCCC[C@H](N)C(=O)O; Orn = NCCC[C@H](N)C(=O)O; Abu = CC[C@H](N)C(=O)O; PhAc = O=C(Cc1ccccc1)*

Assay [1] has as its system J82 urothelial cancer cells. Briefly: In vitro cell viability, J82. The format is cell-based, human. The note with it: antagonist 5 μM for 72 h, cell proliferation assay; MIA602 = 1. The procedure:
(§1) The inhibitory effects of the various synthesized GHRH antagonists were tested in cell proliferation assays in various human cancer cell lines including stomach cancer (KATOIII, N87), colon cancer (HT-29), urothelial cancer (J82, RT4), pancreatic cancer (PANC-1, CFPAC-1), prostatic cancer (PC3), breast cancer (MX-1, HCC1806), ovarian cancer (SK-OV-3, OVCAR-3) and lung cancer (HCC827, H460).
(§2) Cell culture. Human cancer cell lines including pancreatic (PANC-1 and CFPAC-1), lung (HCC827 and H460), stomach (NCI-N87 and KATOIII), urothelial (J82, RT4), prostatic (PC3), breast (MX-1 and HCC 1806), colorectal (HT-29), and ovarian (SK-OV-3 and OVCAR-3) were obtained from the American Type Culture Collection (ATCC) and cultured at 37° C. in a humidified 95% air/5% CO2 atmosphere in the medium recommended by ATCC.
(§3) In vitro cell viability. Cell viability was analyzed as follows: cancer cells including pancreatic (PANC-1 and CFPAC-1), lung (HCC827 and H460), stomach (NCI-N87 and KATOIII), urothelial (J82, RT4), prostatic (PC3) and breast (MX-1 and HCC 1806), colorectal (HT-29) and ovarian (SK-OV-3 and OVCAR-3) were grown on 96 well plates to ˜60% confluence, the cells were starved for 24 h in culture medium containing 0.5% FBS. Cells were then treated with GHRH antagonists MIA602 AVR compounds at concentrations of 1, 2.5 or 5 μM, or vehicle (0.1% DMSO) in quintuplicates for 72 hours. The medium was replaced every 48 hours. Cell viability was measured using CellTiter 96 aqueous one solution kit (Promega). Inhibitory effects of tested AVR compounds in comparison to that of MIA602 are presented as inhibitory potency.
(§4) Inhibitory effects of selected AVR compounds in comparison to that of MIA602 are presented as inhibitory potency (e.g., percentage of inhibition). […] The cell lines tested including lung cancer HCC827 (FIG. 2A), pancreatic cancer CFPAC-1 (FIG. 2B), stomach cancer N87 (FIG. 2C), colon cancer HT-29 (FIG. 2D), breast cancers MX-1 and HCC1806 (FIGS. 2 E, F). Based on the results of cell proliferation assay after cancer cells were treated with antagonist at concentration of 5 μM for 72H, the relative inhibitory potency of AVR antagonists in comparison to MIA-602 is summarized in Table 3 A and B. Over 60 AVR compounds were tested in 12 cancer cell lines.

Assay [2] concerns the target T1, membrane GHRH-receptors on human anterior pituitary cells (Homo sapiens, UniProt Q02643).
T1 construct: Human pituitary was purchased from the National Hormone and Peptide Program; tissue National Hormone and Peptide Program; host or cells: human pituitary (membrane fractions)
T1 sequence (Q02643 23-423): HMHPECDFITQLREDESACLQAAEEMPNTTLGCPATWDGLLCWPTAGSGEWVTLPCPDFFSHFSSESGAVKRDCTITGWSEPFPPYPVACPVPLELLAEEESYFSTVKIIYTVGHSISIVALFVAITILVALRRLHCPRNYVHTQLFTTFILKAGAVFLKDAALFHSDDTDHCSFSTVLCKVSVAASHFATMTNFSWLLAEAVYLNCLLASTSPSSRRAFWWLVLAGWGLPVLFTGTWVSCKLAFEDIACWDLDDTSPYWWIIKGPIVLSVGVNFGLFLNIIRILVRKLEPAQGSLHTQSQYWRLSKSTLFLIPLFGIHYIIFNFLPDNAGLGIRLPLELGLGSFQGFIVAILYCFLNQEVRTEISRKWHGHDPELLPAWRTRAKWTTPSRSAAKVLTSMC
Briefly: Receptor binding, displacement of 125I-[His1,Nle27]-hGH-RH(1-32)NH2 on human pituitary membranes. Summed up: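 Membrane fractions from human pituitary; peptides displace 125I-[His1,Nle27]-hGH-RH(1-32)NH2. IC50 is the dose giving 50% inhibition of specific binding, from duplicate tubes. Relative affinity is the ratio of test IC50 to hGH-RH(1-29)NH2 IC50.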
For orientation: In a radioligand displacement assay an active substance lowers the binding of a labelled ligand.

The subject of another assay is HCC827 lung cancer cells. Briefly: In vitro cell viability, HCC827. The assay is classed as cell-based, human. As to conditions: antagonist 5 μM for 72 h, cell proliferation assay; MIA602 = 1. The gist of the method:
(§5)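 Potency is reported as percent inhibition of viability compared with the reference antagonist MIA602, measured with CellTiter 96 aqueous one solution reagent. Serum-starved cells (0.5% FBS, 24 h) were treated for 72 h, mostly at 5 μM, otherwise 2 μM.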

In the next assay the test system is MX-1 breast cancer cells. Briefly: In vitro cell viability, MX-1. The assay is classed as cell-based, human. As to conditions: antagonist 5 μM for 72 h, cell proliferation assay; MIA602 = 1. The procedure:
as §1, §2, §3, §4
(§6) Based on the results of cell proliferation assay after cancer cells were treated with antagonist at concentration of 5 µM for 72H, * at concentration of 2 µM for 72 H.

In assay [3] the test system is RT4 urothelial cancer cells. Briefly: In vitro cell viability, RT4. The assay is classed as cell-based, human. The note with it: antagonist 5 μM for 72 h, cell proliferation assay; MIA602 = 1. The procedure: as §1, §2, §3
(§7) Inhibitory effects of selected AVR compounds in comparison to that of MIA602 are presented as inhibitory potency (e.g., percentage of inhibition). […] The cell lines tested including lung cancer HCC827 (FIG. 2A), pancreatic cancer CFPAC-1 (FIG. 2B), stomach cancer N87 (FIG. 2C), colon cancer HT-29 (FIG. 2D), breast cancers MX-1 and HCC1806 (FIGS. 2 E, F). […]

The test system of assay [4] is KATOIII stomach cancer cells. Briefly: In vitro cell viability, KATOIII. The assay is classed as cell-based, human. The note with it: antagonist 5 μM for 72 h, cell proliferation assay; MIA602 = 1. The gist of the method: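 Cells grown to ~60% confluence, serum-starved 24 h in 0.5% FBS, then treated with antagonists at 1, 2.5 or 5 μM or vehicle (0.1% DMSO) in quintuplicate for 72 h, medium replaced every 48 h. Viability read by MTS-type CellTiter 96 AQueous One assay; expressed as inhibitory potency relative to MIA602.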

The subject of assay [5] is NCI-N87 stomach cancer cells. Briefly: In vitro cell viability (CellTiter 96), N87. The assay is classed as cell-based, human. The note with it: antagonist 5 μM for 72 h, cell proliferation assay; MIA602 = 1. The procedure:
as §1, §2, §3, §4, §6

For assay [6], the system named is HCC1806 breast cancer cells. Briefly: In vitro cell viability, HCC1806. The format is cell-based, human. As to conditions: antagonist 5 μM for 72 h, cell proliferation assay; MIA602 = 1. The procedure: as §1, §2, §3, §4, §6
The test system of assay [7] is PC3 prostatic cancer cells. Briefly: In vitro cell viability, PC3. The assay is classed as cell-based, human. The note with it: antagonist 5 μM for 72 h, cell proliferation assay; MIA602 = 1. The procedure: as §1, §2, §3, §7
The subject of assay [8] is CFPAC-1 pancreatic cancer cells. Briefly: In vitro cell viability, CFPAC-1. As to conditions: antagonist 5 μM for 72 h, cell proliferation assay; MIA602 = 1. The assay is classed as cell-based, human. Summed up:
as §5

For assay [9], the system named is PANC-1 pancreatic cancer cells. Briefly: In vitro cell viability, PANC-1. The format is cell-based, human. The note with it: antagonist 5 μM for 72 h, cell proliferation assay; MIA602 = 1. The procedure: as §1, §2, §3, §4

Consider `CCCC[C@H](NC(=O)[C@@H](NC(=O)[C@H](CC(=O)O)NC(=O)[C@H](CCC(N)=O)NC(=O)[C@H](CC(C)C)NC(=O)[C@H](CC(C)C)NC(=O)[C@H](CCCN)NC(=O)[C@H](Cc1c[nH]cn1)NC(=O)[C@H](C)NC(=O)[C@H](CO)NC(=O)[C@H](CC(C)C)NC(=O)[C@H](CCC(N)=O)NC(=O)[C@H](CC)NC(=O)[C@H](CC(C)C)NC(=O)[C@@H](NC(=O)[C@H](CCCCN)NC(=O)[C@H](CCCNC(=N)N)NC(=O)[C@H](Cc1ccc(OC)cc1)NC(=O)[C@H](CCCNC(=N)N)NC(=O)[C@H](C)NC(=O)[C@@H](NC(=O)[C@H](Cc1ccc(Cl)cc1)NC(=O)[C@@H](NC(=O)[C@H](C)NC(=O)[C@H](CC(=O)O)NC(=O)[C@@H](CCCNC(=N)N)NC(=O)[C@H](Cc1ccc(O)cc1)NC(=O)CCCCCCCCCCCNC(=O)Cc1ccccc1)[C@@H](C)CC)[C@@H](C)O)C(C)C)[C@@H](C)CC)C(=O)N[C@H](CCCNC(=N)N)C(=O)N[C@@H](CCCCNC(=N)N)C(N)=O` [AVR-104, PhAC-Ada-Tyr-DArg-Asp-Ala-Ile-Cpa-Thr-Ala-Arg-Tyr(Me)-Arg-Lys-Val-Leu-Abu-Gln-Leu-Ser-Ala-His-Orn-Leu-Leu-Gln-Asp-Ile-Nle-DArg-Har-NH2] ({PhAc-12Ado}-Y[dR]DAI[Phe(4-Cl)]TARY(Me)RKVL[Abu]QLSAH[Orn]LLQDI[Nle][dR][hArg]-NH2), for which the “relative inhibitory potency in comparison to MIA-602, Urothelial J82” value in assay [1] stood at 3.377. For the same compound, the IC50 (in general, the concentration at which inhibition is half-maximal) in [2] is 590 pM. Further, in the assay with HCC827 lung cancer cells, the “relative inhibitory potency in comparison to MIA-602, Lung IICC827” value was 1.525. Besides, in the assay with MX-1 breast cancer cells, the “relative inhibitory potency in comparison to MIA-602, Breast MX-1” value is 1.310. The “relative inhibitory potency in comparison to MIA-602, Urothelial RT4” value in [3] came to 1.697. Also, the “relative inhibitory potency in comparison to MIA-602, Stomach KATOIII” value in [4] amounted to 1.321. Also, in assay [5], the “relative inhibitory potency in comparison to MIA-602, Stomach N87” value was 2.291. The “relative inhibitory potency in comparison to MIA-602, Breast IICC1806” value in [6] is on record as 1.220. Also, the “relative inhibitory potency in comparison to MIA-602, Prostatic PC3” value in assay [7] is 1.440. In addition, the “relative inhibitory potency in comparison to MIA-602, Pancreatic CFPAC-1” value in assay [8] worked out at 1.502. Also, the “relative inhibitory potency in comparison to MIA-602, Pancreatic Panc-1” value in assay [9] was 1.114.
